Legend:
Type in all cases: physicochemical
Conditions in all cases: Lipid:siRNA 25:1
[1] = Ribogreen assay for siRNA encapsulation efficiency of Lipid-Based Particles
Protocol: The mixing solution of cationic lipids, cholesterol, non-cationic lipids and PEG-lipids was prepared in ethanol (total concentration at 10 mg/mL). siSTABLE (purchased from ThermoFisher) (sense-5′ GGGGAAAGCUGGCAAGAUUUU-3′ SEQ ID NO: 1) antisense-5′-AAUCUUGCCAGCUUUCCCCUU-3′ SEQ ID NO: 2) % stock solution was prepared in 10 mg/mL of solution by dissolving 10 mg siRNA in 1 mL of RNAse-free UltraPure Water. The calculated amount of siRNA solution was added to 1 mL of citrate buffer (pH 4.0, 20 mM), to provide an siRNA concentration of 0.2 mg/mL, and warmed to 60° C. The calculated amount of lipid solution was warmed to 60° C., transferred to a 0.5 mL syringe with 28½ gauge needle, and injected into the citrate buffer with stirring at 60° C. After 3 minutes, 3 mL of PBS solution at room temperature (pH 7.4) was added into the lipid mixture with stirring. The Lipid-Based Particle solution was cooled to room temperature.
(§1) The siRNA concentrations were measured using Quanti-iT RiboGreen RNA reagent (Molecular Probes, (R11490)). Vesicle sizes were characterized by dynamic light scattering with a DynaPro™ Plate Reader (Wyatt Technology) in 96-well half-area UV plate (Coring) after diluting the formulation sample (20 μL) in phosphate buffered saline (80 μL) at a pH of about 7-8. A 1% agarose gel-based assay was used for analyzing nuclease degradation and protection. Encapsulation efficiency (EE) was calculated using data obtained from a RiboGreen assay.
RNA concentration and encapsulation efficiency were determined using a Quant-iT® Ribogreen RNA reagent and kit available from Invitrogen. The siRNA was released from the Lipid-Based Particle using one of the following reagents: ethanol, Triton X-100, or phenol/chloroform. The siRNA concentration is quantified using fluorescent reading at 480 nm/520 nm.
(§2) A round bottom flask was submerged into a 65° C. water bath. Citrate buffer (37.5 ml) of pH 4.0 was pipetted into the flask. The solution was stirred by a magnetic stirring bar at a speed of 900 rpm. Both the pH 4.0 citrate buffer and the lipid solution were pre-warmed in the 65° C. water bath for about 3 minutes. A siRNA solution (0.5 ml) was pipetted into the pH 4.0 citrate buffer. The 12.5 ml lipid mixture solution was injected through a 27 gauge needle into the citrate buffer in about 30 seconds. The needle tip was inserted into the solution during the injection. The resulting solution was stirred for 5 minutes at a speed of 900 rpm. The flask was pulled up from the water bath and a 50 ml pH 7.4 PBS buffer was added into the flask. The final solution was further mixed at a speed of 900 rpm for 5 minutes. For the diafiltration process, a dialysis filter (Millipore, 100K, Cat #PXB100C50) was used to remove ethanol in the above solution. When the volume was reduced to 20 ml during the initial diafiltration, 20 ml of pH 7.4 PBS was added to the sample solution. The diafiltration was continued until the volume was reduced to 20 ml. The diafiltration process was repeated 4 times. The volume of the sample solution was reduced to about 12 ml and pH 7.4 PBS was added to make the final volume of 15 ml. The 15 ml solution was filtered sequentially through the 0.45 and 0.22 μm sterile PVDF membrane filters (Millipore) and immediately transferred into a sterile vial.

[2] = Particle sizing assay of in vivo formulations (Zetasizer Nano ZS)
Protocol: as §2
For measurements of particle sizes and size distributions (PDI), lipid-based particles were prepared as described above. The particle solution (60 μL) was pipetted into a disposable cuvette (UVette, Eppendorf, cat #952010051) and measured in the “General Purpose” mode. Attenuator and position were optimized by the device. Measurements were performed using a Zetasizer Nano ZS (Malvern Instruments) equipped with a 4 mW He—Ne laser at a wavelength of 633 nm at 25° C. Scattered light was detected at a 173° backward scattering angle. The viscosity and refractive index of water at 25° C. was used for data analysis with the Dispersion Technology Software 5.00 (Malvern Instruments).

[3] = Particle sizing assay of in vitro formulations (dynamic light scattering, DynaPro plate reader)
Protocol: as §1
Particle sizes and size distributions (PDI) were characterized by using dynamic light scattering (DLS). A DLS plate reader (Dynapro™, Wyatt Technology) was used for the DLS measurement. This DLS plate reader uses an 830 nm laser and the scattering angle is 158°. It also can control temperature from 4° C. to 70° C. A 96-well format was employed for the samples.
Samples for DLS analysis were prepared by mixing 20 μL of each sample stock solution with 80 μL PBS directly in the 96-well plate (#3697, Coming). Sample mixing was accomplished using a microplate shaker (Orbis, Mikura Ltd.). Plates were read at 20° C. with an acquisition time of 50 seconds for each sample, and data was analyzed with Wyatt Technology's Dynamics V6 software. To rule out potential multiple scattering artifacts, a second plate at […] reduced sample concentrations was independently prepared by mixing 5 μL stock solutions with 95 μL PBS. Under our experimental conditions the results at the two concentrations were very similar, and the final reported result for each sample represents the average of values obtained from the two plates.

[4] = in vivo formulation A: Cationic lipid/Example 58/DSPC/Chol 45/10/15/30 wt %
[5] = in vitro formulation b: Cationic lipid/PEG-Chol/DSPC/Chol 45/10/15/30 wt %
[6] = in vivo formulation C: Cationic lipid/Pal-PEG-Cera/DSPC/Chol 45/10/15/30 wt %
[7] = in vitro formulation a: Cationic lipid/Example 56/DSPC/Chol 45/10/15/30 wt %
[8] = in vivo formulation D: Cationic lipid/PEG-DMPE/PEG-DSPE/DSPC/Chol 44/4.5/4.5/14/33 wt %

% Encapsulation Efficiency [1, 4] [%] | Size [2, 4] [nm] | Size [3, 5] [nm] | % Encapsulation Efficiency [1, 5] [%] | PDI (size distribution) [2, 4] | Size [3, 7] [nm] | % Encapsulation Efficiency [1, 7] [%] | Structure (SMILES) | other results
87.6 | 185 |  |  |  |  |  | CCCCC/C=C\C/C=C\CCCCCCCCOCC(COCCCCCCCC/C=C\C/C=C\CCCCC)NCCCn1ccnc1 [Example 3, N-(3-(1H-imidazol-1-yl)propyl)-N-(2-((9Z,12Z)-octadeca-9,12-dienyloxy)-1-(((9Z,12Z)-octadeca-9,12-dienyloxy)methyl)ethyl)amine] | 
72.6 | 149 | 125.6 | 96.7 | 0.2 |  |  | CCCCC/C=C\C/C=C\CCCCCCCCOCC(COCCCCCCCC/C=C\C/C=C\CCCCC)N1CCN(C)CC1 [Example 4, 1-methyl-4-(2-((9Z,12Z)-octadeca-9,12-dienyloxy)-1-(((9Z,12Z)-octadeca-9,12-dienyloxy)methyl)ethyl)piperazine] | 
75.5 | 121 | 132.6 | 84.2 | 0.145 |  |  | CCCCC/C=C\C/C=C\CCCCCCCCOCC(COCCCCCCCC/C=C\C/C=C\CCCCC)NCCCN1CCCC1 [Example 6, N-(2-((9Z,12Z)-octadeca-9,12-dienyloxy)-1-(((9Z,12Z)-octadeca-9,12-dienyloxy)methyl)ethyl)-N-(3-pyrrolidin-1-ylpropyl)amine] | 
 | 123 | 130 | 91.8 | 0.15 |  |  | CCCCC/C=C\C/C=C\CCCCCCCCOCC(COCCCCCCCC/C=C\C/C=C\CCCCC)NCCN(C)C [Example 7, N,N-dimethyl-N′-(2-((9Z,12Z)-octadeca-9,12-dienyloxy)-1-(((9Z,12Z)-octadeca-9,12-dienyloxy)methyl)ethyl)ethane-1,2-diamine] | % Encapsulation Efficiency [1, 6]: 91.8%; PDI (size distribution) [2, 6]: 0.128; Size [2, 6]: 119 nm
 | 138 | 116.8 | 95.8 | 0.13 |  |  | CCCCC/C=C\C/C=C\CCCCCCCCOCC(COCCCCCCCC/C=C\C/C=C\CCCCC)NCCc1c[nH]cn1 [Example 9, N-(2-(1H-imidazol-4-yl)ethyl)-N-(2-((9Z,12Z)-octadeca-9,12-dienyloxy)-1-(((9Z,12Z)-octadeca-9,12-dienyloxy)methyl)ethyl)amine] | % Encapsulation Efficiency [1, 6]: 98.9%; PDI (size distribution) [2, 6]: 0.104; Size [2, 6]: 87 nm
 |  |  |  |  | 122 | 96.7 | CCCCC/C=C\C/C=C\CCCCCCCCOCC(COCCCCCCCC/C=C\C/C=C\CCCCC)N(C)Cc1cccc(CN2CCCC2)c1 [Example 18, N-methyl-N-(2-((9Z,12Z)-octadeca-9,12-dienyloxy)-1-(((9Z,12Z)-octadeca-9,12-dienyloxy)methyl)ethyl)-N-(3-(pyrrolidin-1-ylmethyl)benzyl)amine] | 
 |  |  |  |  | 118 | 97.0 | CCCCC/C=C\C/C=C\CCCCCCCCOCC(COCCCCCCCC/C=C\C/C=C\CCCCC)N1CCN(CCn2ccnc2)CC1 [Example 19, 1-(2-(1H-imidazol-1-yl)ethyl)-4-(2-((9Z,12Z)-octadeca-9,12-dienyloxy)-1-(((9Z,12Z)-octadeca-9,12-dienyloxy)methyl)ethyl)piperazine] | 
 |  |  |  |  | 134 | 55.9 | CCCCC/C=C\C/C=C\CCCCCCCCOCC(COCCCCCCCC/C=C\C/C=C\CCCCC)NCc1cccnc1N1CCCC1 [Example 20, N-(2-((9Z,12Z)-octadeca-9,12-dienyloxy)-1-(((9Z,12Z)-octadeca-9,12-dienyloxy)methyl)ethyl)-N-((2-pyrrolidin-1-ylpyridin-3-yl)methyl)amine] | 
 |  |  |  |  | 117.2 | 96.6 | CCCCC/C=C\C/C=C\CCCCCCCC(=O)OCC(COC(=O)CCCCCCC/C=C\C/C=C\CCCCC)N1CCN(C)CC1 [Example 21, (9Z,9′Z,12Z,12′Z)-2-(4-methylpiperazin-1-yl)propane-1,3-diyl dioctadeca-9,12-dienoate] | 
 |  |  |  |  | 120.8 | 88.4 | CCCCC/C=C\C/C=C\CCCCCCCC(=O)OCC(COC(=O)CCCCCCC/C=C\C/C=C\CCCCC)NCCCN1CCCC1 [Example 22, (9Z,9′Z,12Z,12′Z)-2-(3-(pyrrolidin-1-yl)propylamino)propane-1,3-diyl dioctadeca-9,12-dienoate] | 
93.2 | 116 |  | 98.1 | 0.054 |  |  | CCCCC/C=C\C/C=C\CCCCCCCCOCC(COCCCCCCCC/C=C\C/C=C\CCCCC)CN1CCN(C)CC1 [Example 23, 1-methyl-4-(3-((9Z,12Z)-octadeca-9,12-dienyloxy)-2-(((9Z,12Z)-octadeca-9,12-dienyloxy)methyl)propyl)piperazine] | 
 |  |  |  |  | 111.6 | 77.9 | CCCCC/C=C\C/C=C\CCCCCCCCOCC(COCCCCCCCC/C=C\C/C=C\CCCCC)N1CCN(CCN2CCCC2)CC1 [Example 52, 1-(2-[(9Z,12Z)-octadeca-9,12-dienyloxy]-1-{[(9Z,12Z)-octadeca-9,12-dienyloxy]methyl}ethyl)-4-(2-pyrrolidin-1-ylethyl)piperazine] | 
 |  |  | 99.0 |  |  |  | CCCCCCCC/C=C\CCCCCCCCOCC(COCCCCCCCC/C=C\CCCCCCCC)NCCCN1CCCC1 [Example 53, N-(2-[(9Z)-octadec-9-enyloxy]-1-{[(9Z)-octadec-9-enyloxy]methyl}ethyl)-N-(3-pyrrolidin-1-ylpropyl)amine] | % Encapsulation Efficiency [1, 8]: 99.0%; PDI (size distribution) [2, 8]: 0.089; Size [2, 8]: 121.2 nm

Source: patent US20100055168A1, “CATIONIC LIPIDS AND USES THEREOF” (ABBOTT LABORATORIES, priority 2008, published 2010)
